Source: patent publication US20240139125A1 (INDUSTRIAL COOPERATION FOUNDATION JEONBUK NATIONAL …, priority 2020, published 2024)

Key:
Assay type in all cases: cell-based
[1] = tested on: BI-1 (TMBIM6) knockout HT1080 cells; experiment: Cell proliferation of knockout cells with BIA (off-target check)
Method: BI-1 (TMBIM6) WT HT1080 cells, BI-1 (TMBIM6) knockout HT1080 , human breast cancer cell lines MCF7, MDA-MB-231 and SKBR3 were treated with BIA 0.5, 1.0, 2.0, 5.0, 10.0 μM and cell proliferation was confirmed. Cells with proliferation of all cell lines by 5 μM BIA treatment It was confirmed that viability was inhibited (see FIG. 57).
Cell proliferation in BI-1 (TMBIM6) knockout HT1080 cells was investigated to determine if the antiproliferative effect by BIA at this dose was an off-target effect. The cell proliferation rate and AKT phosphorylation of BI-1 (TMBIM6) knockout HT1080 cells were the same with or without BIA except for high concentrations of “20 and 30 μM” (see FIG. 57).
Cell proliferation was investigated in BI-1 (TMBIM6) knockout HT1080 cells to determine if the antiproliferative effect by BIA at the dose was a non-targeted effect. The cell proliferation rate and AKT phosphorylation of BI-1 (TMBIM6) knockout HT1080 cells were the same in the treated and untreated groups of BIA except for high concentrations of “20 and 30 μM” (see FIGS. 63A and 63B).

[2] = tested on: association between RICTOR and mTOR or between RICTOR and RPL19; experiment: Proximity ligation assay in PANC-1 cells; settings: PLA
Description: The graph on the right quantifies the fine, bright points (n=5 independent experiment). The scale bar represents 20 μm. Data were expressed as mean±SD. **p<0.01, Bonferroni's post hoc test after binary ANOVA.

[3] = tested on: HT1080 and MDA-MB-231 cells; experiment: Cell invasion assay
Method: FIG. 65B is an image of an invasive cell in HT1080 and MDA-MB-231 cells treated with 2.0 μM BIA. The graph on the right quantifies invading cells from BIA-treated cells normalized to control cells (n=3 independent experiments). Data were expressed as mean±SD. **p<0.01, ***p<0.001, two-tailed unpaired t-test. The scale bar represents […].
Cells were moved through the polyethylene terephthalate membrane (BD Biosciences) of the insert for 12 hours, and then fixed, crystal violet staining was performed to measure the degree of invasion.
Cell invasion experiments were performed according to the method of the Invasion Assay Kit (corning, 3458). Put a cell culture insert into the 24-well cell culture plate, DMEM medium with 10% FBS added outside the insert , and no FBS added inside the insert. 2.0 μM BIA was added to HT1080 and MDA-MB-231 and incubated at 37° C. for 12˜24 hours. Removed the medium in the 24-well culture plate and the medium inside the insert Then, a cotton swab was used to remove the remaining cells in the insert. After fixing the insert in 4% formaldehyde solution, stain the cells that penetrate the bottom of the insert with crystal violet solution, wash it with tertiary distilled water, and then at room temperature Dried and dried inserts were observed under a microscope.

[4] = tested on: HT1080 cells stably overexpressing BI-1; experiment: Cell proliferation of BI-1 overexpressing cells with BIA; settings: 1 day after treatment
PANC-1 cells = experiment: Cell viability (crystal violet), BIA versus mTOR inhibitors; settings: 10 μM

Nc1ccccc1C(=O)/C=C/c1cccc([N+](=O)[O-])c1 [BIA, 2E-1-2-Aminophenyl-3-3-nitrophenyl-2-propen-1-one]
dose-dependent cell survival ([1]; BI-1 (TMBIM6) knockout cells): did not show a decrease
cell proliferation rate and AKT phosphorylation with or without BIA ([1]; BI-1 knockout HT1080, except for high concentrations of 20 and 30 μM): the same
association between RICTOR and mTOR or between RICTOR and RPL19 [2]: reduced
cell invasion ([3]; HT1080 fibrosarcoma cells, 12 hours): very pronounced cell invasion inhibition
cell invasion ([3]; MDA-MB-231 and HT1080 cells, 2.0 μM BIA): reduced
sensitivity to BIA (cell proliferation) [4]: high sensitivity
live cells (PANC-1 cells): almost removed live cells
